Measured values: patent publication US20030045580A1, “Ibuprofen containing active agent preparation” (priority 2000, published 2003)

Assay: Hardness (radial breaking force) of 200 mg, 9 mm compacts from active ingredient preparation vs physical mixture
Type: physicochemical
Settings: 200 mg compacts, diameter 9 mm
Experimental: The hardness of the round compacts means the radial breaking force.
Various compositions of the novel active ingredient preparation were compressed under various pressures using a type EKO press supplied by Korsch, Berlin, to give 200 mg compacts with a diameter of 9 mm. For comparison therewith, the physical mixtures (PM) of the same composition were compressed under analogous conditions, and the hardnesses of the produced compacts were compared. Physical mixtures mean the dry mixture of ibuprofen with the particular binder.
In contrast to the purely physical mixtures, the novel ibuprofen-containing active ingredient compositions result, even with low compressive forces, in compacts with hardnesses which are distinctly above the hardnesses of 25 N which are adequate for tablets.

Hardness with a compressive force of 4.7 to 5.3 kN (compressive force 4.7 to 5.3 kN): 11.0 N
Hardness with a compressive force of 9.7 to 10.9 kN (compressive force 9.7 to 10.9 kN): 10.8 N
Hardness with a compressive force of 20.1 to 21.1 kN (compressive force 20.1 to 21.1 kN): 20.1 N
Structure (SMILES): CC(C)Cc1ccc(C(C)C(=O)O)cc1 (stereo not drawn) [0% (pure), 2-(4-isobutylphenyl)propionic acid]
